From PMC4668926 (Biochemistry, 2015) come the findings set out here.

In general, Kd refers to the equilibrium constant for the complex coming apart. In general, stoichiometry N refers to a count of units in the complex or per binding partner.

The target of test [1] is T1, KPR (ketopantoate reductase) (Staphylococcus aureus, UniProt A0A0J9X283).
T1 sequence (A0A0J9X283 1-286): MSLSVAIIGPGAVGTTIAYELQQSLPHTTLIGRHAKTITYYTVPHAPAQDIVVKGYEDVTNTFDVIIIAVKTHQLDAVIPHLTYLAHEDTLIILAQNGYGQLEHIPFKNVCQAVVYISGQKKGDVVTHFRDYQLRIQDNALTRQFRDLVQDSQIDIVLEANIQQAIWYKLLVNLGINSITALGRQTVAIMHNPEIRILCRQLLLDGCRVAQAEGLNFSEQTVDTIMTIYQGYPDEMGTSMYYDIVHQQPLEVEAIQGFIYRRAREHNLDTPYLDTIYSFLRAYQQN
The test can be described thus: FRET titration, Trp167 to bound NADPH. The format is binding.

Test [2] concerns the target Staphylococcus aureus ketopantoate reductase (Staphylococcus aureus). The test is described as follows: AUC.

In test [1], `NC(=O)C1=CN([C@@H]2O[C@H](COP(=O)(O)OP(=O)(O)OC[C@H]3O[C@@H](n4cnc5c(N)ncnc54)[C@H](OP(=O)(O)O)[C@@H]3O)[C@@H](O)[C@H]2O)C=CC1` [NADPH] returned a Kd of 0.058 ± 0.002 µM.

Turning to “Staphylococcus aureus ketopantoate reductase (enzyme)”, the stoichiometry N in test [2] is 2.
